In ChEMBL document CHEMBL3994674, “Toward Resolving the Resveratrol Conundrum: Synthesis and in Vivo Pharmacokinetic Evaluation of BCP-Resveratrol” (ACS Med Chem Lett, 2017):
≈ marks a conversion by molar mass, not a printed value.

Experiments:
SU-DHL10 [1] = experiment: Cytotoxicity against human SU-DHL10 cells assessed as growth inhibition after 72 hrs by CellTitre-Glo luminescent assay; format: functional; conditions: SU-DHL10, 72 h
MDA-MB-231 [2] = experiment: Cytotoxicity against human MDA-MB-231 cells assessed as growth inhibition after 72 hrs by CellTitre-Glo luminescent assay; format: functional; conditions: MDA-MB-231, 72 h
MIA PaCa-2 [3] = experiment: Cytotoxicity against human MIAPaCa2 cells assessed as growth inhibition after 72 hrs by CellTitre-Glo luminescent assay; format: functional; conditions: MIA PaCa-2, 72 h
[4] = Drug level in human hepatocytes treated with resveratrol at 5 uM by LC-MS/MS analysis; format: ADME, cell-based, Hepatocyte
[5] = Thermodynamic solubility in pH 7.4 PBS at 10 mg/ml after 1 hr by LC-Ms/MS based shake flask method; format: physicochemical; conditions: read-out: Therm_solubility
[6] = Apparent clearance in Sprague-Dawley rat at 20 mg/kg, po administered as single dose via gavage by HPLC-MS analysis; format: ADME, organism-based; conditions: in vivo
[7] = Octanol/phosphate buffer partition co-efficient, log D of the compound at 75 uM at pH 7.4 after 2 hrs by LC-Ms/MS based shake-flask method; format: physicochemical
[8] = Tmax in Sprague-Dawley rat at 20 mg/kg, po administered as single dose via gavage by HPLC-MS analysis; format: ADME, organism-based; conditions: in vivo
[9] = Half life in Sprague-Dawley rat at 20 mg/kg, po administered as single dose via gavage by HPLC-MS analysis; format: ADME, organism-based; conditions: in vivo
MIA PaCa-2 [10] = experiment: Cytotoxicity against human MIAPaCa2 cells assessed as growth inhibition at 30 uM after 72 hrs by CellTitre-Glo luminescent assay relative to control; format: functional; conditions: MIA PaCa-2, 72 h, read-out: GI
[11] = Apparent intrinsic clearance in human hepatocytes assessed per million cells at 5 uM by LC-MS/MS analysis; format: ADME, cell-based, Hepatocyte
[12] = Apparent intrinsic clearance in rat hepatocytes assessed per million cells at 5 uM by LC-MS/MS analysis; format: ADME, cell-based, Hepatocyte
MDA-MB-231 [13] = experiment: Cytotoxicity against human MDA-MB-231 cells assessed as growth inhibition at 30 uM after 72 hrs by CellTitre-Glo luminescent assay relative to control; format: functional; conditions: MDA-MB-231, 72 h, read-out: GI
[14] = Half life in human hepatocytes at 5 uM by LC-MS/MS analysis; format: ADME, cell-based, Hepatocyte
[15] = Plasma concentration in Sprague-Dawley rat at 20 mg/kg, po administered as single dose via gavage up to 4 hrs by HPLC-MS analysis; format: ADME, organism-based
[16] = Cmax in Sprague-Dawley rat at 20 mg/kg, po administered as single dose via gavage after 5 mins by HPLC-MS analysis; format: ADME, organism-based; set-up: dose 20 mg/kg, route oral; conditions: in vivo
[17] = Half life in rat hepatocytes at 5 uM by LC-MS/MS analysis; format: ADME, cell-based, Hepatocyte
[18] = AUC (0 to last) in Sprague-Dawley rat at 20 mg/kg, po administered as single dose via gavage after 4 hrs by HPLC-MS analysis; format: ADME, organism-based; set-up: dose 20 mg/kg, route oral, time 0 - last; conditions: in vivo
SU-DHL10 [19] = experiment: Cytotoxicity against human SU-DHL10 cells assessed as growth inhibition at 30 uM after 72 hrs by CellTitre-Glo luminescent assay relative to control; format: functional; conditions: SU-DHL10, 72 h, read-out: GI
[20] = Tmax in Wistar rat at 20 mg/kg, po by HPLC-MS analysis; format: ADME, organism-based; conditions: in vivo
[21] = Half life in Wistar rat at 20 mg/kg, po by HPLC-MS analysis; format: ADME, organism-based; conditions: in vivo
[22] = Cmax in CD rat at 50 mg/kg/day, po administered via gavage every 24 hrs for 14 consecutive days measured on day 14 post dose by HPLC-MS analysis; format: ADME, organism-based; set-up: dose 50 mg/kg/day, route oral; conditions: in vivo
[23] = Drug metabolism in human hepatocytes assessed as resveratrol-sulfate formation at 5 uM by LC-MS/MS analysis; format: ADME, cell-based, Hepatocyte
[24] = Drug metabolism in human hepatocytes assessed as resveratrol-glucuronide formation at 5 uM by LC-MS/MS analysis; format: ADME, cell-based, Hepatocyte
[25] = Apparent clearance in Wistar rat at 20 mg/kg, po by HPLC-MS analysis; format: ADME, organism-based; conditions: in vivo
[26] = Cmax in CD rat at 50 mg/kg/day, po administered via gavage every 24 hrs for 14 consecutive days measured on day 1 post dose by HPLC-MS analysis; format: ADME, organism-based; set-up: dose 50 mg/kg/day, route oral; conditions: in vivo
[27] = Cmax in Wistar rat at 20 mg/kg, po by HPLC-MS analysis; format: ADME, organism-based; set-up: dose 20 mg/kg, route oral; conditions: in vivo
[28] = AUC (0 to last) in Wistar rat at 20 mg/kg, po by HPLC-MS analysis; format: ADME, organism-based; set-up: dose 20 mg/kg, time 0 - last, route oral; conditions: in vivo

Compound | solubility thermodynamic at 1 h [5] [µg/mL] | logD at 2 h, 75 µM [7] | CLH(app) [11] [µL/min] | CLH(app) [12] [µL/min] | half-life at 5 µM [14] [min] | half-life at 5 µM [17] [min] | Drug metabolism [4] | inhibition of growth at 30 µM (MIA PaCa-2 [10]) [%] | inhibition of growth at 30 µM (MDA-MB-231 [13]) [%] | inhibition of growth at 30 µM (SU-DHL10 [19]) [%] | other results
COc1ccc(C[C@H](N)C(=O)N[C@H]2[C@@H](O)[C@H](n3cnc4c(N(C)C)ncnc43)O[C@@H]2CO)cc1 [PUROMYCIN] |  |  |  |  |  |  |  |  |  |  | CC50 (SU-DHL10 [1]): 110 nM; CC50 (MDA-MB-231 [2]): 480 nM; CC50 (MIA PaCa-2 [3]): 200 nM
O=C(O)[C@H]1O[C@@H](Oc2ccc(/C=C/c3cc(O)cc(O)c3)cc2)[C@H](O)[C@@H](O)[C@@H]1O |  |  |  |  |  |  | Metabolite_Detected |  |  |  | 
O=S(=O)(O)Oc1ccc(/C=C/c2cc(O)cc(O)c2)cc1 |  |  |  |  |  |  | Metabolite_Detected |  |  |  | 

Continued, in another order:

solubility thermodynamic at 1 h [5] [µg/mL] | logD at 2 h, 75 µM [7] | CLH(app) [11] [µL/min] | CLH(app) [12] [µL/min] | half-life at 5 µM [14] [min] | half-life at 5 µM [17] [min] | Compound | Drug metabolism [4] | inhibition of growth at 30 µM (MIA PaCa-2 [10]) [%] | inhibition of growth at 30 µM (MDA-MB-231 [13]) [%] | inhibition of growth at 30 µM (SU-DHL10 [19]) [%] | other results
619 (≈ 2840 µM) | 1.9 | 7.7 | 57.4 | 90.4 | 24.2 | Oc1cc(O)cc(/C=C/C23CC(O)(C2)C3)c1 |  | 30 | 22 | 41 | CL/F [6]: 21.8 L/h/kg; Tmax [8]: 4.02 min; half-life [9]: 156 min; concentration at 4 h [15]: 85 ng/mL; Cmax [16]: 942 ng/mL; AUC(0-t) at 4 h [18]: 587 ng·h/mL
19 (≈ 83.2 µM) | 2.9 | 29.9 | > 184.8 | 23.2 | < 7.5 | Oc1ccc(/C=C/c2cc(O)cc(O)c2)cc1 [RESVERATROL] |  | 30 | 20 | 46 | Tmax [20]: 4.98 min; half-life [21]: 11.4 min; Cmax [22]: 176 ng/mL; Drug metabolism [23]: Metabolite_Detected; Drug metabolism [24]: Metabolite_Detected; CL/F [25]: 409 L/h/kg; Cmax [26]: 76.7 ng/mL; Cmax [27]: 273 ng/mL; AUC(0-t) [28]: 47.5 ng·h/mL
